Test results: BindingDB's records for PubMed 20126400 (University of Oklahoma, 2010)

How the values were obtained:
Test in all cases: Ray2010 Assay 74
[1] = biological target: 5-hydroxytryptamine receptor 1B (Homo sapiens, UniProt P28222)
Excerpt: (§1) Table S2 shows raw Ki data for the current study combined with data collected from the literature for the ten additional compounds.

[2] = biological target: 5-hydroxytryptamine receptor 1D (Homo sapiens, UniProt P28221)
Excerpt: as §1

[3] = biological target: 5-hydroxytryptamine receptor 2A (Homo sapiens, UniProt P28223)
Excerpt: as §1

[4] = biological target: T1, Alpha-1A adrenergic receptor (Homo sapiens, UniProt P35348)
T1 sequence (P35348 whole entry): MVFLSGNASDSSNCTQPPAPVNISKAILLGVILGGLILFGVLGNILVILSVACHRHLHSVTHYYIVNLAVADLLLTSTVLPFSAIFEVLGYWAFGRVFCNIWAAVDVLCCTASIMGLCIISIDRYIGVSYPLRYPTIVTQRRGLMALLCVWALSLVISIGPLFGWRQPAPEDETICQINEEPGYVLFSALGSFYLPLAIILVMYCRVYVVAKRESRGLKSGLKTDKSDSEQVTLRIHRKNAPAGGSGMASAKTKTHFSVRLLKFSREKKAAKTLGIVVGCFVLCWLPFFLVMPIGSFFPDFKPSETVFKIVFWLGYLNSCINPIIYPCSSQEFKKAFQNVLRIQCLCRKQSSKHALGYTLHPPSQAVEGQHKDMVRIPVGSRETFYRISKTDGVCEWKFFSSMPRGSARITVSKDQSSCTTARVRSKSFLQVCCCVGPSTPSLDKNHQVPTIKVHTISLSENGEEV
Excerpt: as §1

[5] = biological target: T2, Alpha-2A adrenergic receptor (Homo sapiens, UniProt P08913)
T2 sequence (P08913 whole entry): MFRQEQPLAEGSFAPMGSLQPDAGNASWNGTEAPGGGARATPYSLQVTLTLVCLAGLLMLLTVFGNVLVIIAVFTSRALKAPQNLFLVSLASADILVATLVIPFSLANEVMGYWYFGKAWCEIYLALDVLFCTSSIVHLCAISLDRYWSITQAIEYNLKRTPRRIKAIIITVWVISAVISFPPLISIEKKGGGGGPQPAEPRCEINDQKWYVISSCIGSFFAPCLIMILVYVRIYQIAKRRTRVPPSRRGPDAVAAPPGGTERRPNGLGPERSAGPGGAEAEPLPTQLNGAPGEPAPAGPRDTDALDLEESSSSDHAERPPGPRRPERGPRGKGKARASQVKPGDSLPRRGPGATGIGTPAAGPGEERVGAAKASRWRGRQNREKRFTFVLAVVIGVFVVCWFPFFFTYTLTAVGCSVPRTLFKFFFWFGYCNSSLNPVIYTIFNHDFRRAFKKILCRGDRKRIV
Excerpt: as §1

D(2) dopamine receptor = D(2) dopamine receptor (Homo sapiens, UniProt P14416)
Excerpt: as §1

D(4) dopamine receptor = biological target: T3, D(4) dopamine receptor (Homo sapiens, UniProt P21917)
T3 sequence (P21917 whole entry): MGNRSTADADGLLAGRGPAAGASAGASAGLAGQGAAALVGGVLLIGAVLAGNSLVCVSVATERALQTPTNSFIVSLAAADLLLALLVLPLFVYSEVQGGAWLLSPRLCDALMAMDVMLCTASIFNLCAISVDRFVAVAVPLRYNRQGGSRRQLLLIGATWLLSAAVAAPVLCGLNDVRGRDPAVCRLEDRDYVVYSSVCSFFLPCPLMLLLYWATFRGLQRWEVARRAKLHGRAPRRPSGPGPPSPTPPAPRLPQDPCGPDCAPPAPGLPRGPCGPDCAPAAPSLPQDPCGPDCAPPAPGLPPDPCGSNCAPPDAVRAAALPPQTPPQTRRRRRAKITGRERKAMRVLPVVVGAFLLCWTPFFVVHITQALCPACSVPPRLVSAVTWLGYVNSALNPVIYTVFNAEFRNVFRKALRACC
Excerpt: as §1

Histamine H4 receptor = Histamine H4 receptor (Homo sapiens, UniProt Q9H3N8)
Excerpt: as §1

[6] = biological target: T4, Muscarinic acetylcholine receptor M2 (Homo sapiens, UniProt P08172)
T4 sequence (P08172 whole entry): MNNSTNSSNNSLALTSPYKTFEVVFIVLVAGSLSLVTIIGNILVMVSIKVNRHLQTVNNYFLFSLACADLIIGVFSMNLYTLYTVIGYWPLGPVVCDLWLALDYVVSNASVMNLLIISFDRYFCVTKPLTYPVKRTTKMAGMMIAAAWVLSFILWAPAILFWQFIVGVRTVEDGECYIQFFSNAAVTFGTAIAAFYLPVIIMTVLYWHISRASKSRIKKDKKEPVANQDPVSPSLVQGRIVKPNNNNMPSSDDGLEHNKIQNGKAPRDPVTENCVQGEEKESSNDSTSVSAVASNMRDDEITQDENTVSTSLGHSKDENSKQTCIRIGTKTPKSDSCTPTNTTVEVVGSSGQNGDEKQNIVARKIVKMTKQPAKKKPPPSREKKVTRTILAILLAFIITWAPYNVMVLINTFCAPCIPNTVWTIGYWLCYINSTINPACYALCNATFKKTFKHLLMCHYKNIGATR
Excerpt: as §1

[7] = biological target: Sodium-dependent dopamine transporter (Homo sapiens, UniProt Q01959)
Excerpt: as §1

[8] = biological target: Sodium-dependent noradrenaline transporter (Homo sapiens, UniProt P23975)
Excerpt: as §1

[9] = biological target: Delta-type opioid receptor (Homo sapiens, UniProt P41143)
Excerpt: as §1

[10] = biological target: Glutamate receptor ionotropic, NMDA 2A (Homo sapiens, UniProt Q12879)
Excerpt: as §1

Histamine H1 receptor = Histamine H1 receptor (Homo sapiens, UniProt P35367)
Excerpt: as §1

[11] = biological target: T5, Muscarinic acetylcholine receptor M1 (Homo sapiens, UniProt P11229)
T5 sequence (P11229 whole entry): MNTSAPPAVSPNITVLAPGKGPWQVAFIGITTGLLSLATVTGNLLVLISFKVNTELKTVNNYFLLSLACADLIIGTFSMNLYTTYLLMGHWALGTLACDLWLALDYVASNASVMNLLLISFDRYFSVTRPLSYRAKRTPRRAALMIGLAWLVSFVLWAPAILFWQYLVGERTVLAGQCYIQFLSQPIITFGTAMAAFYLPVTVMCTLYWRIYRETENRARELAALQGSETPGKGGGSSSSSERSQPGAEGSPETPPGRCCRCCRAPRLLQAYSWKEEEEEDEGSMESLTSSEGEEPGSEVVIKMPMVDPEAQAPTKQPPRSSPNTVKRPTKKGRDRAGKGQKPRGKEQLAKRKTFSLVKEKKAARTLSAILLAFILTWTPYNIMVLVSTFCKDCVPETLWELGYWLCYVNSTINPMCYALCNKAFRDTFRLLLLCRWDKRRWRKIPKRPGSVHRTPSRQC
Excerpt: as §1

5-hydroxytryptamine receptor 1D, sequence (P28221 whole entry): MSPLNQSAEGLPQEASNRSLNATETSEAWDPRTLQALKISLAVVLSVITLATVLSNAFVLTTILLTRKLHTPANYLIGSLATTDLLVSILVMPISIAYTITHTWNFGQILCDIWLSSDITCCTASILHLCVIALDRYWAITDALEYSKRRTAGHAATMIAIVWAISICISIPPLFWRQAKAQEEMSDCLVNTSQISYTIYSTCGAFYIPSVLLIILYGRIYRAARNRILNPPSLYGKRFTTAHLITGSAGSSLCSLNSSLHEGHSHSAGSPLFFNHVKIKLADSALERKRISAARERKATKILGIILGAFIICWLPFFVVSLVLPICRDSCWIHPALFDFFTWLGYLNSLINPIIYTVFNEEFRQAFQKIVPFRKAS
Delta-type opioid receptor, sequence (P41143 whole entry): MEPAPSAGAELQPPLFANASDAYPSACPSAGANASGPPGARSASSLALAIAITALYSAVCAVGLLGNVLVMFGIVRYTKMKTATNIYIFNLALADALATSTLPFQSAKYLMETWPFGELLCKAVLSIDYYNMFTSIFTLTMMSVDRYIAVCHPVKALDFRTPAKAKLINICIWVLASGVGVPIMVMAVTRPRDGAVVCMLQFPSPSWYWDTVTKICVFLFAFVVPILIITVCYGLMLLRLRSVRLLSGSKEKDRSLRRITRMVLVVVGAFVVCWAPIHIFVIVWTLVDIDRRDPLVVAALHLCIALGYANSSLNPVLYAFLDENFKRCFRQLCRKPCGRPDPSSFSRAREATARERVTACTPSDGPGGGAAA
Histamine H1 receptor, sequence (P35367 whole entry): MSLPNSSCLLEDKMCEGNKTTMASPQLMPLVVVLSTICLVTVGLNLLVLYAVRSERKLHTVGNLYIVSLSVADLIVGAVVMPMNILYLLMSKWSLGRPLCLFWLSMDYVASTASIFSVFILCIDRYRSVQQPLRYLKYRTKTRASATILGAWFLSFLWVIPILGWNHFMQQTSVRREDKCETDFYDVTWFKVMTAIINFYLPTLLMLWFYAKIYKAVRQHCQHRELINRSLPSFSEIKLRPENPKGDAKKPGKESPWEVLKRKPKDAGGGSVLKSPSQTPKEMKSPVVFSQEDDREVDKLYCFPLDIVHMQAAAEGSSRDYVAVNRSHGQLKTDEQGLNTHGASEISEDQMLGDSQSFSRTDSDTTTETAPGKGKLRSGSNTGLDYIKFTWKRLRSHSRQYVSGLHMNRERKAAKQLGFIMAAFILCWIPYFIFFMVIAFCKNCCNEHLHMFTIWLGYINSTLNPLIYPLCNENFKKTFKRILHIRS
D(2) dopamine receptor, sequence (P14416 whole entry): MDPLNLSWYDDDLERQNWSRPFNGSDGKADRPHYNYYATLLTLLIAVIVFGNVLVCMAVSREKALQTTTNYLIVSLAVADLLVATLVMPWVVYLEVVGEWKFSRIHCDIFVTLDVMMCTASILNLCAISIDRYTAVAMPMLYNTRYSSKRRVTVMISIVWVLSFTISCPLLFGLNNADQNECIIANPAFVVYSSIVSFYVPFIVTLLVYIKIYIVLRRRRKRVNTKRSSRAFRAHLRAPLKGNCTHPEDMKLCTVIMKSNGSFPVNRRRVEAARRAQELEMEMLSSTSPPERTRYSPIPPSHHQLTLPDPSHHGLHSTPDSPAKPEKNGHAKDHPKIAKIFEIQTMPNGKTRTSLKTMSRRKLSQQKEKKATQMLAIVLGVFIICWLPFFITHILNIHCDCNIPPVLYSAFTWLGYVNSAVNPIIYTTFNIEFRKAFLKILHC
5-hydroxytryptamine receptor 2A, sequence (P28223 whole entry): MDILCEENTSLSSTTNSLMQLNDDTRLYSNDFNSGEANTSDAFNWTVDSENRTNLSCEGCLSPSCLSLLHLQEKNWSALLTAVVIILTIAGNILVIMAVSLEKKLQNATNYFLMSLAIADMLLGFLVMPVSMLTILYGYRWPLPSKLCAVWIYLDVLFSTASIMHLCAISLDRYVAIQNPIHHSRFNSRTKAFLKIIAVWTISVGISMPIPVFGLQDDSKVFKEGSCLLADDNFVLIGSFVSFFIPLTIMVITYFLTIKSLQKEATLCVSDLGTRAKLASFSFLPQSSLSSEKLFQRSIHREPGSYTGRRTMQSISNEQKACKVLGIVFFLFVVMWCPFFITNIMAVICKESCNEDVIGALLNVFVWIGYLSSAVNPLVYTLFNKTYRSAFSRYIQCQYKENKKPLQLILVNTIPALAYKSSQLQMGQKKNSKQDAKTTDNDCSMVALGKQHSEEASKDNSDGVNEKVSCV
5-hydroxytryptamine receptor 1B, sequence (P28222 whole entry): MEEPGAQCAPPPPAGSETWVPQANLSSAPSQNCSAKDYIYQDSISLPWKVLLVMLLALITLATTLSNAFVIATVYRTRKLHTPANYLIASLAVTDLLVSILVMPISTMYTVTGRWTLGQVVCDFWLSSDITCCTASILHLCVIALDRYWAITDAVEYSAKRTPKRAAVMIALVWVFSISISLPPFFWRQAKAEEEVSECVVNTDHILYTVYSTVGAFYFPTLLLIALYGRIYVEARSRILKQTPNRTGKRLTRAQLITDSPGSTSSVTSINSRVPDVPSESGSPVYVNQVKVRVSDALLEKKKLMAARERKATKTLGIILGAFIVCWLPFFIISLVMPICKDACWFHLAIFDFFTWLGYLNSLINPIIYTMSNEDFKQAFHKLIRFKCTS
Glutamate receptor ionotropic, NMDA 2A, sequence (Q12879 whole entry): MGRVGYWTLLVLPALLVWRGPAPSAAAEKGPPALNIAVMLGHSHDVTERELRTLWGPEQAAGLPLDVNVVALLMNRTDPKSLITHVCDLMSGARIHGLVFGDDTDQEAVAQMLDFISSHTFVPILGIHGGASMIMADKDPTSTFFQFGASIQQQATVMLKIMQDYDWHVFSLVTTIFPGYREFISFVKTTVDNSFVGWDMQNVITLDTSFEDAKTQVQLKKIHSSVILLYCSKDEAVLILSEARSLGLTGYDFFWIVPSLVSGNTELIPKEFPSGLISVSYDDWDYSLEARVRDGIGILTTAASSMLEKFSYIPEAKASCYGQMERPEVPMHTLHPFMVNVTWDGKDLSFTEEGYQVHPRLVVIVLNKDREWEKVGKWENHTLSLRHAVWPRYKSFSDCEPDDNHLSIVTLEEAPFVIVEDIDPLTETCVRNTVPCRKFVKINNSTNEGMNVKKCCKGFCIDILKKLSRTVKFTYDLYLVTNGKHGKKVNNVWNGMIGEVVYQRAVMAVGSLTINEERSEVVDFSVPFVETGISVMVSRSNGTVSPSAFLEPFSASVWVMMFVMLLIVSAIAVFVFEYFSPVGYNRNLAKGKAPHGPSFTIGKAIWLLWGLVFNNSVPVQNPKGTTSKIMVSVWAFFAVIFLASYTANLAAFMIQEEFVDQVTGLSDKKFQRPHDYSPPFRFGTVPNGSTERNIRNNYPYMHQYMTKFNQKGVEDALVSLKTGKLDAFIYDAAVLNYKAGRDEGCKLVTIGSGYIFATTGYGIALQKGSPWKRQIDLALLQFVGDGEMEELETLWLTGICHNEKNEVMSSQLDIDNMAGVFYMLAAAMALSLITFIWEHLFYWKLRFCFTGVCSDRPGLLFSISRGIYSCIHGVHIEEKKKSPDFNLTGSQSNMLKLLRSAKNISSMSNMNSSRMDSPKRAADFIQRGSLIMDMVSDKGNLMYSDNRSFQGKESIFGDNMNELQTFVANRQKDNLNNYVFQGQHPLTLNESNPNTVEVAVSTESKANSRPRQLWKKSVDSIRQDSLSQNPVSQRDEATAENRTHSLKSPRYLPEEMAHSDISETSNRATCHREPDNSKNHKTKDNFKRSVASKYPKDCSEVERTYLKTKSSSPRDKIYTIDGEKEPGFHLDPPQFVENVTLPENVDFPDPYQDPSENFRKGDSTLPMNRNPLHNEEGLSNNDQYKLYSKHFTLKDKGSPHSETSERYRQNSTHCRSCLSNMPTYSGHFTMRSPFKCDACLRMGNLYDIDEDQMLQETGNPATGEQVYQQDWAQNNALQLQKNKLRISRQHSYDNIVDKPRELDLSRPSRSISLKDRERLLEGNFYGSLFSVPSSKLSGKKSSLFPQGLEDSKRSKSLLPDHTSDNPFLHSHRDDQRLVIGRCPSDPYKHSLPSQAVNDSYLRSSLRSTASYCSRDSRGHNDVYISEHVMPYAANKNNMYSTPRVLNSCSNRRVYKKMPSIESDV
Histamine H4 receptor, sequence (Q9H3N8 whole entry): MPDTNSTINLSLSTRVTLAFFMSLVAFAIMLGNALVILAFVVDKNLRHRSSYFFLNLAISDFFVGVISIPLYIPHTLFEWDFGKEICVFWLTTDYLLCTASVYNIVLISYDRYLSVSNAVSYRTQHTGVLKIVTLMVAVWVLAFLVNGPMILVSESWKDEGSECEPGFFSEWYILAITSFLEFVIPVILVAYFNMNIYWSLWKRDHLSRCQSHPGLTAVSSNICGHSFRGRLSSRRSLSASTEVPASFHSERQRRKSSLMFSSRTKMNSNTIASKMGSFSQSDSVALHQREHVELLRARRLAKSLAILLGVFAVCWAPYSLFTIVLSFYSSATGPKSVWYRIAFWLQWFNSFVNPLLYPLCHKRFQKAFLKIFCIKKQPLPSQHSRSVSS
Sodium-dependent noradrenaline transporter, sequence (P23975 whole entry): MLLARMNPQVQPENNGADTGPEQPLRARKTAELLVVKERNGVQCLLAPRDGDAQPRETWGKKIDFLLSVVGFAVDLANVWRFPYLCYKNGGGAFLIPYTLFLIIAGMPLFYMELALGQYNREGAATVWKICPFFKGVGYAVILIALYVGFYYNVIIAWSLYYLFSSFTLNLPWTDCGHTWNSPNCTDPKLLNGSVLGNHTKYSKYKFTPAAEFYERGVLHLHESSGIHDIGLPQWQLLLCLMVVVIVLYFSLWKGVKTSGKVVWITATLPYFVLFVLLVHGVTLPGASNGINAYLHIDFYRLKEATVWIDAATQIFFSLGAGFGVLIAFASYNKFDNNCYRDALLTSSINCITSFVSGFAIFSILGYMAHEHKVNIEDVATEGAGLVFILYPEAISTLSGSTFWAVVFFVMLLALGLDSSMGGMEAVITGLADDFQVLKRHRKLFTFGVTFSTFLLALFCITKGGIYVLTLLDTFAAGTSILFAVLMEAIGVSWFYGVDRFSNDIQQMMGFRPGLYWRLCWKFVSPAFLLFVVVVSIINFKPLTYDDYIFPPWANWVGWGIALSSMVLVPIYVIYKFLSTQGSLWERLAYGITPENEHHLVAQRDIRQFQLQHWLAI

Compound	Ki [1]	Ki [2]	Ki [3]	Ki [4]	Ki [5]	Ki (D(2) dopamine receptor)	Ki (D(4) dopamine receptor)	Ki (Histamine H4 receptor)	Ki [6]	Ki [7]	Ki [8]	Ki [9]	Ki [10]	Ki (Histamine H1 receptor)	Ki [11]
CC(N)Cc1ccc2c(c1)OCO2 (stereo unspecified)	> 10000 nM	> 10 µM	> 10000 nM	> 10 µM	1660 nM	> 10 µM	> 10 µM	> 10 µM	> 10 µM	> 10 µM	> 10 µM				
COc1cc(CC(C)N)cc(OC)c1OC (stereo unspecified)	2860 nM	3.03 µM	> 10000 nM	> 10 µM	2070 nM	> 10 µM	> 10 µM	> 10 µM	> 10 µM	> 10 µM	> 10 µM	> 10 µM	> 10 µM	> 10 µM	
CC[C@H]1C[C@@H]2C[C@H]3c4[nH]c5ccc(OC)cc5c4CCN(C2)[C@@H]13	> 10000 nM	> 10 µM	14100 nM			> 10 µM	> 10 µM		39.4 µM	1.98 µM		> 10 µM	2 µM	> 10 µM	22.5 µM
CCc1cc(OC)c(CC(C)N)cc1OC (stereo unspecified)	2800 nM	6.62 µM	27.3 nM	> 10 µM	1280 nM	> 10 µM	> 10 µM	> 10 µM	> 10 µM	> 10 µM	> 10 µM	> 10 µM	> 10 µM	> 10 µM	
NCCc1c2c(c(Br)c3c1OCC3)OCC2 [2-(8-Bromo-2,3,6,7-tetrahydro-benzo[1,2-b;4,5-b']difuran-4-yl)-ethylamine]	185 nM	0.0014 µM	11.6 nM	> 10 µM	145 nM	6.84 µM	> 10 µM	> 10 µM	2.03 µM	> 10 µM	> 10 µM	> 10 µM		5.75 µM	
CCc1[nH]c2ccc(OC)cc2c1CCN(C)C [2-ethyl-5-methoxy-N,N-dimethyltryptamine]	> 10000 nM		> 10000 nM			> 10 µM	> 10 µM	> 10 µM	> 10 µM	> 10 µM		> 10 µM	> 10 µM	> 10 µM	> 10 µM
COC(=O)[C@@H]1C[C@H](OC(C)=O)C(=O)[C@H]2[C@@]1(C)CC[C@H]1C(=O)O[C@H](c3ccoc3)C[C@]21C [2S,4aR,6a(R,7R,9S,10aS,10bR)-9-(acetyloxy)-2-(furan-3-yl)dodecahydro-6a,10b-dimethyl-4,10-dioxo-2H-naphtho[2,1-c]pyran-7-carboxylic acid methyl ester]	> 10000 nM	> 10 µM	> 10000 nM	> 10 µM		> 10 µM	> 10 µM		> 10 µM	> 10 µM				> 10 µM	> 10 µM
COc1ccc2[nH]cc(CCN(C)C)c2c1 [3-(2-DIMETHYLAMINOETHYL)-5-METHOXYINDOLE]				> 10 µM	1890 nM	3.56 µM	3.12 µM		> 10 µM	> 10 µM	2.86 µM				> 10 µM
CN(C)CCc1c[nH]c2cccc(O)c12 [4-hydroxy-N,N-dimethyltryptamine]				> 10 µM		> 10 µM	> 10 µM	> 10 µM	> 10 µM	> 10 µM	> 10 µM	> 10 µM		> 10 µM	> 10 µM
COc1cc(OC)c(OC)cc1CC(C)N (stereo not drawn) [(+/-)1-Methyl-2-(2,4,5-trimethoxy-phenyl)-ethylamine]	> 10000 nM	> 10 µM	584 nM	> 10 µM	> 10000 nM	> 10 µM	> 10 µM	> 10 µM	> 10 µM	> 10 µM	> 10 µM			1.41 µM	
COc1ccc2[nH]c(C)c(CCN(C)C)c2c1 [[2-(5-Methoxy-2-methyl-1H-indol-3-yl)-ethyl]-dimethyl-amine (C2H2O)]	> 10000 nM		> 10000 nM			> 10 µM	> 10 µM	> 10 µM	> 10 µM	> 10 µM		> 10 µM	> 10 µM	> 10 µM	> 10 µM
CCN(CC)C(=O)[C@@H]1C=C2c3cccc4[nH]cc(c34)C[C@H]2N(C)C1 [[N-methyl-3H]LSD]	3.9 nM	0.0078 µM		1.13 µM		0.11 µM	0.158 µM			> 10 µM	> 10 µM	> 10 µM	> 10 µM		
C[C@@H]1C[C@H](C)N1C(=O)C1C=C2c3cccc4[nH]cc(c34)C[C@H]2N(C)C1 (stereo partly drawn) [cis-2a]	3.7 nM		29.7 nM	0.529 µM		0.0491 µM				> 10 µM	> 10 µM	> 10 µM	> 10 µM	0.501 µM	
CNC(C)Cc1ccc2c(c1)OCO2 (stereo unspecified) [mdma]	> 10000 nM	> 10 µM	> 10000 nM	> 10 µM	2530 nM	> 10 µM	> 10 µM		> 10 µM	> 10 µM	> 10 µM		> 10 µM	> 10 µM	> 10 µM
C[C@@H]1C[C@@H](C)N1C(=O)C1C=C2c3cccc4[nH]cc(c34)C[C@H]2N(C)C1 (stereo partly specified) [rr-2b]	2 nM	0.018 µM	690 nM	5.19 µM		0.264 µM				> 10 µM	> 10 µM	> 10 µM	> 10 µM	1.45 µM	
